According to paper PMC6546875, “Efficacy of Antimicrobial Peptide DP7, Designed by Machine-Learning Method, Against Methicillin-Resistant Staphylococcus aureus” (Frontiers in Microbiology, 2019):
In brackets after ≈: the same amount, converted by molar mass. Several values for one entry are separate records, joined by “and”; a condition that tells them apart may be missing. Equal values may be shown once. Where a name gives a salt, the structure may show the parent alone. Read-outs that look alike come from different tables or passages of the source. Marks after values point to notes of the source that are not given here. No end group written: not given here.

Experiments:
[1] = test system: S. aureus DP7-R; type: cell-based, Staphylococcus aureus; conditions: change from 1× MIC (ATCC 25923) to n× MIC (DP7-R)
Method: Subsequently, the bacterial samples were counted at different time points (0, 1, 2, 4, 6, 8, 18, and 24 h).
For every 48 h, we transferred 2% of each culture to new flasks containing fresh medium with a twofold higher DP7 concentration. […] Aliquots from each population were stored in 20% glycerol at -80°C.

[2] = test system: S. aureus ATCC 25923; assay: microbe, parasite or virus in culture; conditions: Staphylococcus aureus, ATCC25923, 22 h, read-out: MIC for ATCC 25923
[3] = test system: S. aureus; assay: In vitro time-killing assay; type: cell-based, Staphylococcus aureus; conditions: Figure 1; S. aureus ATCC 25923 and ATCC 33591
[4] = test system: MRSA strain ATCC 33591; assay: Murine model of MRSA blood stream infection; type: in vivo, C57 female mice; conditions: 10 mg/kg i.v., 72 h, vs PBS-treated mice, n = 5
Method: A well-characterized murine model of blood stream infection was employed to study the pharmacodynamics profiles of DP7 and compare them with those of vancomycin. Briefly, C57 female mice (body weight 17 g ± 1 g), purchased from Hua Fu Kang Biological Technology Co., Ltd (Beijing, China), were intravenously infected with 1 × 10^8 CFU/100 μL of MRSA strain ATCC 33591 in the logarithmic growth phase (recovery on defibrinated sheep blood agar, Oxoid, United Kingdom). One hour after infection, the mice were treated with various doses of DP7 (0.5, 1, and 2 mg/kg), while the mice in the control group were injected with the same volume of saline. Vancomycin at 10 mg/kg was used as the positive control. Survival and weight changes were observed every 24 h for 1 week. At 24 and 72 h, organs, including the heart, liver, spleen, lung, kidney, and blood were collected and the bacterial load was counted for each murine. At 72 h, the liver, spleen, lungs, and kidneys were fixed with 4% paraformaldehyde for 1 week, sectioned at 4 μm after processing for paraffin embedding, and then stained with hematoxylin and eosin (H&E). All animal procedures were approved and controlled by the Institutional Animal Care and Treatment Committee of Sichuan University and conducted according to the Animal Care and Use Guidelines of Sichuan University.

[5] = test system: S. aureus ATCC 25923; conditions: superscript b; ref Shen et al., 2012; cited from earlier work
Source text: Table 1 MIC of various AMPs against S. aureus. | column: MIC for ATCC 25923 (mg/L) || Here, the antimicrobial peptide (AMP) DP7, a short 12 amino acid AMP with broad-spectrum antibacterial activities, was chosen to analyze its potential mechanisms for killing S. aureus.

[6] = test system: S. aureus ATCC 33591; conditions: superscript b; ref Shen et al., 2012; cited from earlier work
[7] = test system: S. aureus ATCC 33591; type: cell-based, Staphylococcus aureus; conditions: ATCC 33591, 22 h
Method: (§1) The susceptibility testing methods were performed as previously described ([Wiegand et al., 2008]). […] The minimum bactericidal concentration (MBC) endpoint is the lowest concentration of antibacterial agent that kills > 99.9% of the initial bacterial population where no visible growth of bacteria was observed on nutrient agar plates. […] Subsequently, the bacterial samples were counted at different time points (0, 1, 2, 4, 6, 8, 18, and 24 h).

[8] = test system: S. aureus ATCC 25923
[9] = test system: E. coli (ATCC 25922); type: cell-based, Escherichia coli; conditions: ATCC 25922, 22 h
Method: as §1

[10] = test system: P. aeruginosa (PAO1); type: cell-based, Pseudomonas aeruginosa; conditions: PAO1, 22 h
Method: as §1

Compound: CC[C@H]1OC(=O)[C@H](C)[C@@H](O[C@H]2C[C@@](C)(OC)[C@@H](O)[C@H](C)O2)[C@H](C)[C@@H](O[C@@H]2O[C@H](C)C[C@H](N(C)C)[C@H]2O)[C@](C)(O)C[C@@H](C)CN(C)[C@H](C)[C@@H](O)[C@]1(C)O [azithromycin]
- MIC for DP7-R as multiple of the MIC for ATCC 25923 [1]: 1 × MIC
- MIC [2]: 0.125 µg/mL (≈ 0.167 µM)

Compound: CNC(C)C1CCC(N)C(OC2C(N)CC(N)C(OC3OCC(C)(O)C(NC)C3O)C2O)O1 (stereo not shown) [gentamicin]
- MIC for DP7-R as multiple of the MIC for ATCC 25923 [1]: 4 × MIC
- MIC use here (time-killing curves) [3]: 0.125 µg/mL (≈ 0.262 µM)
- MIC [2]: 0.0625 µg/mL (≈ 0.131 µM)

Compound: COc1c(N2C[C@@H]3CCCN[C@@H]3C2)c(F)cc2c(=O)c(C(=O)O)cn(C3CC3)c12 [moxifloxacin hydrochloride]
- MIC for DP7-R as multiple of the MIC for ATCC 25923 [1]: 1 × MIC
- MIC [2]: 0.125 µg/mL

Compound: CCn1cc(C(=O)O)c(=O)c2cc(F)c(N3CCNCC3)cc21 [noroxin, norfloxacin]
- MIC for DP7-R as multiple of the MIC for ATCC 25923 [1]: 2 × MIC
- MIC use here (time-killing curves) [3]: 1 µg/mL (≈ 3.13 µM)
- MIC [2]: 1 µg/mL (≈ 3.13 µM)

Compound: CC1COc2c(N3CCN(C)CC3)c(F)cc3c(=O)c(C(=O)O)cn1c23 (stereo not shown) [ofloxacin]
- MIC for DP7-R as multiple of the MIC for ATCC 25923 [1]: 2 × MIC
- MIC [2]: 0.25 µg/mL (≈ 0.692 µM)

Compound: CO[C@H]1/C=C/O[C@@]2(C)Oc3c(C)c(O)c4c(O)c(c(/C=N/N5CCN(C)CC5)c(O)c4c3C2=O)NC(=O)/C(C)=C\C=C\[C@H](C)[C@H](O)[C@@H](C)[C@@H](O)[C@@H](C)[C@H](OC(C)=O)[C@@H]1C [rifampicin]
- MIC for DP7-R as multiple of the MIC for ATCC 25923 [1]: 1 × MIC

Compound: CN[C@H](CC(C)C)C(=O)N[C@H]1C(=O)N[C@@H](CC(N)=O)C(=O)N[C@H]2C(=O)N[C@H]3C(=O)N[C@H](C(=O)N[C@H](C(=O)O)c4cc(O)cc(O)c4-c4cc3ccc4O)[C@H](O)c3ccc(c(Cl)c3)Oc3cc2cc(c3O[C@@H]2O[C@H](CO)[C@@H](O)[C@H](O)[C@H]2O[C@H]2C[C@](C)(N)[C@H](O)[C@H](C)O2)Oc2ccc(cc2Cl)[C@H]1O [vancomycin]
- MIC for DP7-R as multiple of the MIC for ATCC 25923 [1]: 1 × MIC
- MIC use here (time-killing curves) [3]: 0.25 µg/mL (≈ 0.173 µM)
- bacterial load in heart, liver, spleen, lung, kidney and blood [4]: statistically significant reductions
- MIC [2]: 0.25 µg/mL (≈ 0.173 µM)

Compound: LLGDFFRKSKEKIGKEFKRI VQRIKDFLRNLVPRTES [LL-37, antimicrobial peptide, 37 amino acids]
- MIC for ATCC 25923 [5]: 14 mg/L and 14^b mg/L
- MIC for ATCC 33591 [6]: 28^b mg/L

Compound: RLARIVVIRVAR [Bac2A]
- MIC for ATCC 33591 [7]: 43.7^a mg/L

Compound: VQLRIRVAVIRA [HH2]
- MIC for ATCC 33591 [7]: 64^a mg/L
- MIC for ATCC 25923 ([8]; ATCC 25923, 22 h): 64 mg/L

Compound: VQLRIRVCVIRK [DP8]
- MIC for DP7-R as multiple of the MIC for ATCC 25923 [1]: 4 × MIC
- MIC for ATCC 25923 ([8]; ATCC 25923, 22 h): 16 mg/L

Compound: VQLRIRVCVIRK [DP10]
- MIC for DP7-R as multiple of the MIC for ATCC 25923 [1]: 4 × MIC
- MIC for ATCC 25923 ([8]; logarithmic growth-phase bacteria, 37°C, 22 h, OD600): 64 mg/L

Compound: VQWRIRVAVIRK [DP7]
- MBC [7]: 64 µg/mL
- MIC for ATCC 33591 [7]: 16^a mg/L
- MBC [9]: 64 µg/mL
- MIC [9]: 16 µg/mL
- MBC [10]: 64 µg/mL
- MIC [10]: 16 µg/mL
- MBC ([8]; ATCC 25923, 22 h): 64 µg/mL
- MIC for ATCC 25923 ([8]; ATCC 25923, 22 h): 16^a mg/L
